Assay results: patent US11945786B2, “Compounds, devices, and uses thereof” (SIGILON THERAPEUTICS, INC., priority 2016, dated 2024)

System: Macrophage cell lines
Assay: In vitro macrophage adhesion assay (Example 8)
Format: cell-based
Conditions: compound conjugated to NHS-activated 96 well plate; 50000 cells per well, 37 degrees Celsius, one hour; averaged across eight wells; normalized PEG750=0, Fibronectin=100
Protocol: Exemplary compounds of the invention were prepared at a concentration of 0.1M in a 0.1M bicarbonate buffer (pH 8.2) containing 25% v/v DMSO. Control solutions of 0.1M PEG750-amine and 0.01% fibronectin were prepared in 0.1M bicarbonate buffer (pH 8.2).
Each small molecule amine solution (100 μL) was pipetted into eight wells of an NHS-activated 96 well plate and incubated 2 hours at room temperature. Each plate consisted of two lanes spiked with the two control solutions and ten lanes spiked with test molecule solutions. The test wells were rinsed once with 200 μL 0.1M bicarbonate buffer (pH 8.2) containing 25% v/v DMSO followed by three washes with 200 μL Hyclone™ water. The control wells were rinsed with 0.1M bicarbonate buffer (pH 8.2) followed by three 200 μL Hyclone™ water washes. Plates were dried at room temperature in a sterile hood and stored at 4-8° C. until use.
Macrophage cell lines were plated onto 96 well plates, 50000 cells per well, and incubated at 37 degrees Celsius for one hour. Plates were then placed at a 45-degree angle and washed by applying fluid shear 5 times. Non-adherent and adherent cells were then separated and treated with a Cell titer-glo kit to quantify the number of live cells. Live cells were detected using luminescence-based plate reader measurements. The resulting cell adhesion values for each small molecule amine was averaged across the eight wells and standard deviations calculated. The average cell adhesion value for each small molecule was normalized relative to the averages for the two controls on each plate: PEG750=0, Fibronectin (FN)=100. Small molecule normalized value=(SM-PEG750)/(FN-PEG750). Results are expressed as a percentage of cells adhered on the plates. % Percent adherent cells=(Luminescence of adhered cells)/(Luminescence of adhered+non-adhered cells). In this table, “A” represents a cell adhesion value of <0% to about 10%; “B” represents a cell adhesion value of 10% to about 50%; and “C” represents a cell adhesion value of 50% to 100%.

Compound	cell adhesion value (percentage of cells adhered on the plates)
NCCOCCOCCOCCn1cc(CN2CCS(=O)(=O)CC2)nn1 [Compound 3037, 4-((1-(2-(2-(2-(2-aminoethoxy)ethoxy)ethoxy)ethyl)-1H-1,2,3-triazol-4-yl)methyl)thiomorpholine 1,1-dioxide]	A (a cell adhesion value of <0% to about 10%)
C=CC(=O)NCc1ccc(-n2cc(COC3CCCCO3)nn2)cc1 (stereo not drawn) [Compound 3040, N-(4-(4-(((tetrahydro-2H-pyran-2-yl)oxy)methyl)-1H-1,2,3-triazol-1-yl)benzyl)acrylamide]	C (a cell adhesion value of 50% to 100%)
Fibronectin [reference compound]	C (a cell adhesion value of 50% to 100%)
